The values that follow come from PMC8855532 (Journal of the American Chemical Society, 2022).

The target in the test is 40-residue Alzheimer’s β-amyloid peptide (Aβ40) fibrils (Homo sapiens, UniProt P05067). Put plainly: HPLC titration of free/bound ligand on preformed fibrils. The class given is binding.

Molecules are shown by their SMILES.

Chain of 40-residue Alzheimer’s β-amyloid peptide (Aβ40) fibrils (P05067 672-711): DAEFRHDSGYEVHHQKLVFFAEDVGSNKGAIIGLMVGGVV

With `CNc1ccc(-c2nc3ccc(O)cc3s2)cc1F` [flutemetamol], the dissociation constant (Kd) was found to be 1600 ± 200 nM.
